Source: the kinase profiling compilation of Christmann-Franck et al. (2016)

Tests used:
Assay in all cases: radiometric filter-binding kinase assay
CDK2 CCNA2 (human) = CDK2 CCNA2 (human) (UniProt P20248+P24941)
AURKA (human) = AURKA (human) (UniProt O14965)
MAP3K1 (human) = MAP3K1 (human) (UniProt Q13233)
HIPK1 (human) = HIPK1 (human) (UniProt Q86Z02)
RPS6KA5 KD1 KD2 (human) = RPS6KA5 KD1 KD2 (human) (UniProt O75582)
BRSK2 (human) = BRSK2 (human) (UniProt Q8IWQ3)
[1] = tested on: SGK1 (human), O00141 [S422D]
JAK2 JH1 JH2 (human) = JAK2 JH1 JH2 (human) (UniProt O60674)
CLK2 (human) = CLK2 (human) (UniProt P49760)
EPHB4 (human) = EPHB4 (human) (UniProt P54760)
HIPK3 (human) = HIPK3 (human) (UniProt Q9H422)
MST4 (human) = MST4 (human) (UniProt Q9P289)
PRKCZ (human) = PRKCZ (human) (UniProt Q05513)
MARK3 (human) = MARK3 (human) (UniProt P27448)
STK3 (human) = STK3 (human) (UniProt Q13188)
STK3 (human), sequence (Q13188 whole entry, looked up): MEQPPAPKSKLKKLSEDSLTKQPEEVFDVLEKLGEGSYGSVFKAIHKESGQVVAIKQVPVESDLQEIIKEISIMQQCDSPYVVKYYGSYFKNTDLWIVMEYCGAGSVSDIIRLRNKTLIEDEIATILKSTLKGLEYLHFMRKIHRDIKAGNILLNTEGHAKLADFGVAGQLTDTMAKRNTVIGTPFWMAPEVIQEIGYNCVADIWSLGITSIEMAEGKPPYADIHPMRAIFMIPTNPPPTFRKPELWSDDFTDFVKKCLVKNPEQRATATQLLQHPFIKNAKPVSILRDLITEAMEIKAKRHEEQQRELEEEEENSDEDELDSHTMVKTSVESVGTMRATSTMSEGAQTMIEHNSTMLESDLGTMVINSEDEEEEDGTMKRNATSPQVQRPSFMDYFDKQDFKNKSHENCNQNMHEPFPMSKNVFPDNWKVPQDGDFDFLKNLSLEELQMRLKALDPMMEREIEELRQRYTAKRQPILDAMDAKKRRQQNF

MARK4 (human) = MARK4 (human) (UniProt Q96L34)
MARK4 (human), sequence (Q96L34 whole entry, looked up): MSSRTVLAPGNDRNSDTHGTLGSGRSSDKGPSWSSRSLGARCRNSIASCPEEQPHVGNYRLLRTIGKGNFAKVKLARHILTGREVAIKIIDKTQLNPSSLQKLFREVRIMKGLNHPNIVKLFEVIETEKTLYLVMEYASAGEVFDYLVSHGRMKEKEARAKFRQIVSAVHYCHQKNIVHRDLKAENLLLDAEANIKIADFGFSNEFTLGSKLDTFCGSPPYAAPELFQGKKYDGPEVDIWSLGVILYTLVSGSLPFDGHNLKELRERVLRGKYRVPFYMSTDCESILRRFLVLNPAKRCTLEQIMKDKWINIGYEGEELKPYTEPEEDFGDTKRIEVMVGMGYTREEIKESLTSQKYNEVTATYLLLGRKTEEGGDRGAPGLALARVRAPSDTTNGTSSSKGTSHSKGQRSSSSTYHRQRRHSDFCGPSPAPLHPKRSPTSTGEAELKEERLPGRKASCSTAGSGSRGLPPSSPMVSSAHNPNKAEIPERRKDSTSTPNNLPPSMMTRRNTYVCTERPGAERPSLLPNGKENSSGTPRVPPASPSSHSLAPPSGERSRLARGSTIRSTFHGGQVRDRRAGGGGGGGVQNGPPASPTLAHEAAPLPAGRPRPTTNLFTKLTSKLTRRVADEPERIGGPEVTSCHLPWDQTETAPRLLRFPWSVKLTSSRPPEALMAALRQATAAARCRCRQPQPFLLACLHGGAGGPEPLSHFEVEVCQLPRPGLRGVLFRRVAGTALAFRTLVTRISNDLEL

SRC (human) = SRC (human) (UniProt P12931)
MAP3K5 (human) = MAP3K5 (human) (UniProt Q99683)
NUAK1 (human) = NUAK1 (human) (UniProt O60285)
CHEK1 (human) = CHEK1 (human) (UniProt O14757)
CHEK1 (human), sequence (O14757 whole entry, looked up): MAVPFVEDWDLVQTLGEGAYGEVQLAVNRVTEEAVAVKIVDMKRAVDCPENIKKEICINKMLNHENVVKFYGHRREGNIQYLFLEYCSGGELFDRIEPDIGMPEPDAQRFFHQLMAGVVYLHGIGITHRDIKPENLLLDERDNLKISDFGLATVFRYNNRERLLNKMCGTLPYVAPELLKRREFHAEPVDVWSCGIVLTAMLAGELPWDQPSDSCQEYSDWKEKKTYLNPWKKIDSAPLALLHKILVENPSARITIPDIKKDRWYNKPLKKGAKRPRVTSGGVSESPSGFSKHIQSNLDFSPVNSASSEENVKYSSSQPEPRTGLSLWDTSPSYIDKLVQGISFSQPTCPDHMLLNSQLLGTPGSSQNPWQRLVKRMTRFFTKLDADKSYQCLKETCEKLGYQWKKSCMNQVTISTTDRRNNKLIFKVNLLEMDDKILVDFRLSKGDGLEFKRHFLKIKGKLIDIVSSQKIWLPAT

GCK (human) = GCK (human) (UniProt Q12851)
ERBB4 (human) = ERBB4 (human) (UniProt Q15303)
CHEK2 (human) = CHEK2 (human) (UniProt O96017)
MAPK1 (human) = MAPK1 (human) (UniProt P28482)
TAOK1 (human) = TAOK1 (human) (UniProt Q7L7X3)
TAOK1 (human), sequence (Q7L7X3 whole entry, looked up): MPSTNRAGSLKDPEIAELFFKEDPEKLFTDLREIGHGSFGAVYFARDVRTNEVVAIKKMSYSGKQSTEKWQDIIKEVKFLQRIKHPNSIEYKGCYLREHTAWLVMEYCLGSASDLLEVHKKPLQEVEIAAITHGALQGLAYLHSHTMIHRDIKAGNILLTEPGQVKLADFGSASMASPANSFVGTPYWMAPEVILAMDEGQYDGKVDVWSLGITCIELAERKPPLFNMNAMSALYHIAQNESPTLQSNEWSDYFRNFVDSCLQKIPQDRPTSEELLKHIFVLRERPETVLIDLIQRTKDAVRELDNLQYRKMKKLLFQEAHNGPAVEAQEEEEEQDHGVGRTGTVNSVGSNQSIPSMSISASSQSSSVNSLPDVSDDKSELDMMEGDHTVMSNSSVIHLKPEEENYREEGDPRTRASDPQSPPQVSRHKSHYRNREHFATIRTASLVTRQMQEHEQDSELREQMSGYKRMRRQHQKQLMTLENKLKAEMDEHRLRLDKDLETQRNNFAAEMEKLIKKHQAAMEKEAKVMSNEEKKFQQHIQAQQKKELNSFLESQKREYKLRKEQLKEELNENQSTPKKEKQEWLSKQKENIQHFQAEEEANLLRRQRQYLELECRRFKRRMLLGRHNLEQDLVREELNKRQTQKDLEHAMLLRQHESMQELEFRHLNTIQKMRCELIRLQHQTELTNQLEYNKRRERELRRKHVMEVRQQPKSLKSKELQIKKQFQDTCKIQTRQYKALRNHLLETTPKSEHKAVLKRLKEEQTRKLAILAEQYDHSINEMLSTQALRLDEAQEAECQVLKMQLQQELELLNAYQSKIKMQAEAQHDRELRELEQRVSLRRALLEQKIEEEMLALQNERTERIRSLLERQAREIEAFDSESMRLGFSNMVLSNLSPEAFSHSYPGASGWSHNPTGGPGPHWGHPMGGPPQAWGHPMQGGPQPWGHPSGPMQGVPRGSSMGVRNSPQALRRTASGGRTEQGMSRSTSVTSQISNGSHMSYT

PRKCA (human) = PRKCA (human) (UniProt P17252)
PLK1 (human) = PLK1 (human) (UniProt P53350)
FLT1 (human) = FLT1 (human) (UniProt P17948)
RPS6KA1 KD1 KD2 (human) = RPS6KA1 KD1 KD2 (human) (UniProt Q15418)
PAK6 (human) = PAK6 (human) (UniProt Q9NQU5)
EEF2K (human) = EEF2K (human) (UniProt O00418)
MAPK3 (human) = MAPK3 (human) (UniProt P27361)
DAPK1 (human) = DAPK1 (human) (UniProt P53355)
DAPK1 (human), sequence (P53355 whole entry, looked up): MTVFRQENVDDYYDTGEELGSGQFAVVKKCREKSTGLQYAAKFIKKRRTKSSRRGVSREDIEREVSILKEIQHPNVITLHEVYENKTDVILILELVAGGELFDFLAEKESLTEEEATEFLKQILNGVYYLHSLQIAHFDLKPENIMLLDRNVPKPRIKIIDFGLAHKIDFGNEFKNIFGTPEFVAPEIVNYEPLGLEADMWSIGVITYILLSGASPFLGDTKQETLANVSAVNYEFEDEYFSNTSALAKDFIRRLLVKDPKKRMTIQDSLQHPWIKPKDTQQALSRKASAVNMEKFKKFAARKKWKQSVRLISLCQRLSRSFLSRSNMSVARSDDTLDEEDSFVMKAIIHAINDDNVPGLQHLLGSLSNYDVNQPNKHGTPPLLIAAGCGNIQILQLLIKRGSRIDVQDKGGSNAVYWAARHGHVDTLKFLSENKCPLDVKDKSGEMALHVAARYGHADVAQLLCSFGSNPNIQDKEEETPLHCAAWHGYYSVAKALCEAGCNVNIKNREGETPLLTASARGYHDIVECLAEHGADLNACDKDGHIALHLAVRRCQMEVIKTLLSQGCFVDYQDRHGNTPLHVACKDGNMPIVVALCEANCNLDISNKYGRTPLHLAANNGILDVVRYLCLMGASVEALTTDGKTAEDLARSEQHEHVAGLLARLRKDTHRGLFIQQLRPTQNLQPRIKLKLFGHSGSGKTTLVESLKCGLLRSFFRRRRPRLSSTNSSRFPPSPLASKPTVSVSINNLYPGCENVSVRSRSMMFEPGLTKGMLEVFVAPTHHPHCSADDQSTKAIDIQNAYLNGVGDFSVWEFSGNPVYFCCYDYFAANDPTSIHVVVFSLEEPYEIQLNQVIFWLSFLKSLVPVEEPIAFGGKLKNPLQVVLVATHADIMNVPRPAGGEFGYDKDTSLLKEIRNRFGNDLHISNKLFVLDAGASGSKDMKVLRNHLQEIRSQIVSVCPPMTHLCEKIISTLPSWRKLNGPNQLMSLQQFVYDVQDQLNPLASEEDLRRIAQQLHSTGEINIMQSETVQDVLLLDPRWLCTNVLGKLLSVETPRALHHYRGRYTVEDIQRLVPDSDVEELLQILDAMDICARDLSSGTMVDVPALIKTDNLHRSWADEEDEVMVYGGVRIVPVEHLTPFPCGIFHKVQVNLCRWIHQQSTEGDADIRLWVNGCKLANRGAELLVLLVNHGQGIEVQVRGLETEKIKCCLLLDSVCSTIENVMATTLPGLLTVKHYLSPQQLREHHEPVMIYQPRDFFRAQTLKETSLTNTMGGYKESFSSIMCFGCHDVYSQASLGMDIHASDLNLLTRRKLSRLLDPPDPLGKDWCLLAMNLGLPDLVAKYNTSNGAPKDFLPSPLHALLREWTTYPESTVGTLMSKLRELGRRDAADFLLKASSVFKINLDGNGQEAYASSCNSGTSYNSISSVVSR

NTRK1 (human) = NTRK1 (human) (UniProt P04629)
RPS6KA3 KD1 KD2 (human) = RPS6KA3 KD1 KD2 (human) (UniProt P51812); conditions: compound 100.0 µM

RPS6KA5 KD1 KD2 (human), sequence (O75582 whole entry, looked up): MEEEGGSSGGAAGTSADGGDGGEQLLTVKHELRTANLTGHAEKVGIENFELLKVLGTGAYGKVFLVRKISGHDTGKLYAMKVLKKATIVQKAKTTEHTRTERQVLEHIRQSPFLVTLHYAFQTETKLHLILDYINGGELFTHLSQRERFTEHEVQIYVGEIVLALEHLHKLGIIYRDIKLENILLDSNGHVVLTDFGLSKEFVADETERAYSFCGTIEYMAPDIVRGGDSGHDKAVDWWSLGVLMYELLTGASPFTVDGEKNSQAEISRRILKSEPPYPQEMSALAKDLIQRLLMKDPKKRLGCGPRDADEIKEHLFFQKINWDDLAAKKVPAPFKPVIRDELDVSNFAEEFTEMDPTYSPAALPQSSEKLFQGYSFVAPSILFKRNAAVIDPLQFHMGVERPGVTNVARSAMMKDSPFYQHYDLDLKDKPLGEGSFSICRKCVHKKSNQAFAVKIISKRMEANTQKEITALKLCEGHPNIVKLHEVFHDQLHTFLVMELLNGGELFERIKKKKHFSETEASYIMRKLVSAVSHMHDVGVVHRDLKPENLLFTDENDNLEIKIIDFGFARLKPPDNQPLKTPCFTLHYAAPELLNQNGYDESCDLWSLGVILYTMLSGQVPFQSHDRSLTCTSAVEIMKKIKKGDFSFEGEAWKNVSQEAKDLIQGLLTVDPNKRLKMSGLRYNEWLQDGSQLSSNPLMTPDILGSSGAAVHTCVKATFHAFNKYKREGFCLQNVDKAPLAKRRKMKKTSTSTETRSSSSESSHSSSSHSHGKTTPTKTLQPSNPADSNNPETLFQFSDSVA

NCC(=O)Nc1ccc(-n2nc(C(F)(F)F)cc2-c2ccc3c(ccc4ccccc43)c2)cc1
residual activity (CDK2 CCNA2 (human); compound 1.0 µM): 95% | residual activity (CDK2 CCNA2 (human); compound 10.0 µM): 95% | residual activity (AURKA (human); compound 1.0 µM): 95% | residual activity (AURKA (human); compound 10.0 µM): 107% | residual activity (MAP3K1 (human); compound 1.0 µM): 93% | residual activity (MAP3K1 (human); compound 10.0 µM): 103% | residual activity (HIPK1 (human); compound 1.0 µM): 104% | residual activity (HIPK1 (human); compound 10.0 µM): 90% | residual activity (RPS6KA5 KD1 KD2 (human); compound 1.0 µM): 110% | residual activity (RPS6KA5 KD1 KD2 (human); compound 10.0 µM): 46% | residual activity (BRSK2 (human); compound 1.0 µM): 76% | residual activity (BRSK2 (human); compound 10.0 µM): 64% | residual activity ([1]; compound 1.0 µM): 71% | residual activity ([1]; compound 10.0 µM): 30% | residual activity (JAK2 JH1 JH2 (human); compound 1.0 µM): 101% | residual activity (CLK2 (human); compound 1.0 µM): 93% | residual activity (CLK2 (human); compound 10.0 µM): 64% | residual activity (EPHB4 (human); compound 1.0 µM): 116% | residual activity (HIPK3 (human); compound 1.0 µM): 94% | residual activity (HIPK3 (human); compound 10.0 µM): 64% | residual activity (MST4 (human); compound 1.0 µM): 80% | residual activity (MST4 (human); compound 10.0 µM): 72% | residual activity (PRKCZ (human); compound 1.0 µM): 94% | residual activity (PRKCZ (human); compound 10.0 µM): 61% | residual activity (MARK3 (human); compound 1.0 µM): 96% | residual activity (MARK3 (human); compound 10.0 µM): 101% | residual activity (STK3 (human); compound 1.0 µM): 106% | residual activity (STK3 (human); compound 10.0 µM): 81% | residual activity (MARK4 (human); compound 1.0 µM): 88% | residual activity (MARK4 (human); compound 10.0 µM): 102% | residual activity (SRC (human); compound 1.0 µM): 103% | residual activity (SRC (human); compound 10.0 µM): 135% | residual activity (MAP3K5 (human); compound 1.0 µM): 86% | residual activity (MAP3K5 (human); compound 10.0 µM): 83% | residual activity (NUAK1 (human); compound 1.0 µM): 85% | residual activity (NUAK1 (human); compound 10.0 µM): 61% | residual activity (CHEK1 (human); compound 1.0 µM): 72% | residual activity (CHEK1 (human); compound 10.0 µM): 44% | residual activity (GCK (human); compound 1.0 µM): 107% | residual activity (GCK (human); compound 10.0 µM): 92% | residual activity (ERBB4 (human); compound 1.0 µM): 106% | residual activity (ERBB4 (human); compound 10.0 µM): 104% | residual activity (CHEK2 (human); compound 10.0 µM): 76% | residual activity (MAPK1 (human); compound 1.0 µM): 101% | residual activity (MAPK1 (human); compound 10.0 µM): 88% | residual activity (TAOK1 (human); compound 1.0 µM): 103% | residual activity (TAOK1 (human); compound 10.0 µM): 92% | residual activity (PRKCA (human); compound 1.0 µM): 94% | residual activity (PRKCA (human); compound 10.0 µM): 90% | residual activity (PLK1 (human); compound 1.0 µM): 95% | residual activity (PLK1 (human); compound 10.0 µM): 111% | residual activity (FLT1 (human); compound 1.0 µM): 79% | residual activity (FLT1 (human); compound 10.0 µM): 89% | residual activity (RPS6KA1 KD1 KD2 (human); compound 1.0 µM): 87% | residual activity (RPS6KA1 KD1 KD2 (human); compound 10.0 µM): 63% | residual activity (PAK6 (human); compound 1.0 µM): 88% | residual activity (PAK6 (human); compound 10.0 µM): 28% | residual activity (EEF2K (human); compound 10.0 µM): 75% | residual activity (MAPK3 (human); compound 1.0 µM): 80% | residual activity (MAPK3 (human); compound 10.0 µM): 63% | residual activity (DAPK1 (human); compound 1.0 µM): 95% | residual activity (DAPK1 (human); compound 10.0 µM): 43% | residual activity (NTRK1 (human); compound 1.0 µM): 90% | residual activity (NTRK1 (human); compound 10.0 µM): 90%

Cc1cc(N=Nc2cc(S(=O)(=O)O)c(C)cc2C)c(N)cc1O
residual activity (RPS6KA3 KD1 KD2 (human)): 80% | residual activity (CDK2 CCNA2 (human); compound 100.0 µM): 94% | residual activity (AURKA (human); compound 100.0 µM): 32% | residual activity (MAP3K1 (human); compound 100.0 µM): 88% | residual activity (HIPK1 (human); compound 100.0 µM): 94% | residual activity (RPS6KA5 KD1 KD2 (human); compound 100.0 µM): 84% | residual activity (BRSK2 (human); compound 100.0 µM): 46% | residual activity ([1]; compound 100.0 µM): 52% | residual activity (JAK2 JH1 JH2 (human); compound 100.0 µM): 71% | residual activity (EPHB4 (human); compound 100.0 µM): 123% | residual activity (HIPK3 (human); compound 100.0 µM): 74% | residual activity (MST4 (human); compound 100.0 µM): 67% | residual activity (PRKCZ (human); compound 100.0 µM): 97% | residual activity (MARK3 (human); compound 100.0 µM): 96% | residual activity (STK3 (human); compound 100.0 µM): 81% | residual activity (MARK4 (human); compound 100.0 µM): 81% | residual activity (SRC (human); compound 100.0 µM): 40% | residual activity (MAP3K5 (human); compound 100.0 µM): 151% | residual activity (NUAK1 (human); compound 100.0 µM): 44% | residual activity (CHEK1 (human); compound 100.0 µM): 196% | residual activity (GCK (human); compound 100.0 µM): 80% | residual activity (ERBB4 (human); compound 100.0 µM): 99% | residual activity (CHEK2 (human); compound 100.0 µM): 100% | residual activity (MAPK1 (human); compound 100.0 µM): 134% | residual activity (TAOK1 (human); compound 100.0 µM): 109% | residual activity (PRKCA (human); compound 100.0 µM): 81% | residual activity (PLK1 (human); compound 100.0 µM): 79% | residual activity (FLT1 (human); compound 100.0 µM): 62% | residual activity (RPS6KA1 KD1 KD2 (human); compound 100.0 µM): 99% | residual activity (PAK6 (human); compound 100.0 µM): 96% | residual activity (EEF2K (human); compound 100.0 µM): 92% | residual activity (MAPK3 (human); compound 100.0 µM): 98% | residual activity (DAPK1 (human); compound 100.0 µM): 82% | residual activity (NTRK1 (human); compound 100.0 µM): 65%
